The nature of the series: Macrolactamisation (Trp/pyrroloindoline CO2H + Val NH2): HATU 1.2 equiv pre-activation, slow syringe-pump addition to Et3N (15 equiv; 1.2 equiv for 12), after TFA N-Boc removal. The settings on record: CH2Cl2/DMF (10:1 to 40:1), 0.6 mM, 2 steps.

In the case of `C=CC(C)(C)[C@@]12C[C@@H]3C(=O)N[C@@H](C(C)C)C(=O)Nc4ccccc4C(=O)N(c4ccccc41)[C@@H]2N3C(C)=O`, the ring closure, yield over several steps (from C=CC(C)(C)[C@]12C[C@H](C(=O)O)N(C(C)=O)[C@H]1N(C(=O)c1ccccc1NC(=O)[C@@H](N)C(C)C)c1ccccc12, 12-membered ring, 37.0 h) was found to be 0%.

For the compound `C=CC(C)(C)[C@]12C[C@@H]3C(=O)N[C@@H](C(C)C)C(=O)Nc4ccccc4C(=O)N(c4ccccc41)[C@H]2N3C(C)=O` [endo-40 -> D-Trp-regio-endo-4], the ring closure, yield over several steps (from C=CC(C)(C)[C@@]12C[C@H](C(=O)O)N(C(C)=O)[C@@H]1N(C(=O)c1ccccc1NC(=O)[C@@H](N)C(C)C)c1ccccc12, 12-membered ring, 24.0 h) was 61%.

With `C=CC(C)(C)[C@]12C[C@H]3C(=O)N[C@@H](C(C)C)C(=O)Nc4ccccc4C(=O)N(c4ccccc41)[C@H]2N3C(C)=O` [(S)-exo-40 -> L-Trp-regio-exo-4 (moderately pure, unstable)], the ring closure, yield over several steps (from C=CC(C)(C)[C@@]12C[C@@H](C(=O)O)N(C(C)=O)[C@@H]1N(C(=O)c1ccccc1NC(=O)[C@@H](N)C(C)C)c1ccccc12, 12-membered ring, 15.0 h) is 21%.

As to `CC(=O)N[C@@H]1Cc2cn(c3ccccc23)C(=O)c2ccccc2NC(=O)[C@H](C(C)C)NC1=O` [H-L-Val-(2-aminobenzoyl)-(N-indole)-Ac-D-Trp-OH], for the setting “from CC(=O)N[C@H](Cc1cn(C(=O)c2ccccc2NC(=O)[C@@H](N)C(C)C)c2ccccc12)C(=O)O, 13-membered ring, 84.0 h”, the ring closure, yield over several steps was found to be 14%.

Consider `C=CC(C)(C)[C@@]12C[C@H]3C(=O)N[C@@H](C(C)C)C(=O)Nc4ccccc4C(=O)N(c4ccccc41)[C@@H]2N3C(C)=O` [(S)-endo-40 -> L-Trp-regio-endo-4], for which the ring closure, yield over several steps (from C=CC(C)(C)[C@]12C[C@@H](C(=O)O)N(C(C)=O)[C@H]1N(C(=O)c1ccccc1NC(=O)[C@@H](N)C(C)C)c1ccccc12, 12-membered ring, 22.0 h) came out at 37%.

The record behind these values is publication PMC9552235.
